Data published in US11572590B2, “Methods for evaluating tumor cell spheroids using 3D microfluidic cell culture device” (Dana-Farber Cancer Institute, Inc., priority 2017, dated 2023).

Experiments:
MC38 MDOTS = test: Live/dead (AO/PI) imaging of MC38 MDOTS in 3D microfluidic culture; type: cell-based, murine; conditions: Cmpd1 (1 μM) + αPD-1; did not reach significance vs single-agent PD-1
Method: (§1) Fresh tumor specimens (murine and human patients) were received in media (DMEM) on ice and minced in a 10 cm dish (on ice) using sterile forceps and scalpel. Minced tumor was resuspended in DMEM ([…], […] sodium pyruvate, 1:100 penicillin-streptomycin) (Corning CellGro, Manassas, Va.) +10% FBS (Gemini Bio-Products, West Sacramento, Calif.), 100 U/mL collagenase type IV (Life Technologies, Carlsbad, Calif.), and 15 mM HEPES (Life Technologies, Carlsbad, Calif.), except for CT26 tumors that were prepared in RPMI. Samples were pelleted and resuspended in 10-20 mL media. Red blood cells were removed from visibly bloody samples using RBC Lysis Buffer (Boston Bio-Products, Ashland, Mass.). […]
(§2) Dual labeling was performed by loading microfluidic device with Nexcelom ViaStain™ AO/PI Staining Solution (Nexcelom, CS2-0106). Following incubation with the dyes (20 minutes at room temperature in the dark), images were captured on a Nikon Eclipse 80i fluorescence microscope equipped with Z-stack (Prior) and CoolSNAP CCD camera (Roper Scientific). […] Live and dead cell quantitation was performed by measuring total cell area of each dye. […]

CT26 MDOTS = test: Live/dead (AO/PI) imaging of CT26 MDOTS in 3D microfluidic culture; type: cell-based, murine; conditions: Cmpd1 (1 μM) + αPD-1, 6 days
Method: as §1, §2

MC38 allograft = test: MC38 allograft, Compound 1 and anti-PD-L1 combination in vivo; set-up: species or system mouse; conditions: Cmpd1 + αPD-L1; did not reach significance vs single-agent PD-L1

N#Cc1cc(-c2ncnc(Nc3ccc(N4CCN(C5COC5)CC4)cc3)n2)ccc1OC1CCOCC1 [Compound 1, 5-(4-((4-(4-(oxetan-3-yl)piperazin-1-yl)phenyl)amino)-1,3,5-triazin-2-yl)-2-((tetrahydro-2H-pyran-4-yl)oxy)benzonitrile]
ex vivo killing of MC38 MDOTS, combination treatment (MC38 MDOTS): enhanced ex vivo killing
killing of CT26 MDOTS, ex vivo combination treatment (CT26 MDOTS): enhanced killing
in vivo survival, MC38 model, combination treatment (MC38 allograft): enhanced
